Read-outs that look alike come from different tables or passages of the source.
Experiments:
[1] = test system: TNFα-FL/Gaussia Luciferase; assay: Dox Induced TNFα-FL-Gluc Assay; format: cell-based
Excerpt: (§1) Flp-In 293 T-REx™ cells were transfected with pcDNA™5/FRT/TO plasmid inserted with cDNA encoding Gaussia Luciferase fused to the 3′ end of cDNA encoding full length TNFα (amino acids 1-233). Transfected cells were selected for resistance to the selectable markers Hygromycin and Blasticidin to create a stable cell line that contained the TNFα-FL/Gaussia Luciferase cDNA insert whose expression was regulated under the T-REx™ system. The day before assay, cells were trypsinized and plated in 384-well tissue culture plates. The next day, compound dilutions in DMSO/media containing doxycycline were added to the wells and incubated at 37° C., 5% CO2.
(§2) For chemical structures that include one or more stereoisomers, but are illustrated without indicating stereochemistry, the assay data refers to a mixture of stereoisomers.

[2] = test system: PD1-ss+10aa/Gaussia Luciferase; assay: Dox-Induced PD1-ss-Gluc Assay; format: cell-based
Outline: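 Stable Flp-In 293 T-REx cells carried a doxycycline-inducible construct of Gaussia luciferase fused to the PD1 signal sequence plus 10 amino acids. Cells were plated the day before, then treated with compound dilutions in DMSO/media containing doxycycline at 37 °C, 5% CO2.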

[3] = Liver Microsome Stability Assay, rat; format: in vitro ADME; conditions: rat liver microsomes 1.0 mg/mL, 1.0 uM compound, 37° C., 1 mM NADPH
Outline: (§3)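 Compound at 1.0 uM (0.4% DMSO) was incubated at 37° C with 1.0 mg/mL liver microsomes in 0.1 M potassium phosphate, with or without 1 mM NADPH. Samples were quenched at 0 and 30 minutes.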

[4] = test system: multiple myeloma cell line U266B1; assay: U266 Cell Viability Assay; format: cell-based; conditions: Homo sapiens
Outline: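 Viability is measured as luciferase signal from CellTiter-Glo following a 48-hour incubation with compound at 37° C. under 5% CO2. Where structures lack drawn stereochemistry, values refer to stereoisomer mixtures.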

[5] = test system: IL-2-FL/Gaussia Luciferase; assay: Dox Inducible IL2-FL-Gluc Assay; format: cell-based
Outline: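 Doxycycline induces an IL-2(1-153)–Gaussia luciferase fusion in a stable Flp-In 293 T-REx line. Compound exposure runs alongside induction at 37° C.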

[6] = Liver Microsome Stability Assay, human; format: in vitro ADME; conditions: human liver microsomes 1.0 mg/mL, 1.0 uM compound, 37° C., 1 mM NADPH
Outline: as §3

[7] = Liver Microsome Stability Assay, monkey; format: in vitro ADME; conditions: monkey liver microsomes 1.0 mg/mL, 1.0 uM compound, 37° C., 1 mM NADPH
Outline: as §3

[8] = test system: multiple myeloma cell line NCI-H929; assay: H929 Cell Viability Assay; format: cell-based, human; conditions: Homo sapiens
Outline: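 Viability is scored by CellTiter-Glo luminescence following a 48-hour treatment at 37° C. Data for structures shown without stereochemistry refer to stereoisomer mixtures.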

[9] = test system: HER3-ss+4aa/Gaussia Luciferase; assay: Dox-Inducible Her3-ss-Gluc Assay; format: cell-based
Excerpt: as §1, with “HER3 signal sequence plus 4 amino” for “full length TNFα (amino”, “(N-[…]-C) (SEQ ID NO: 2).” for “1-233).”, “HER3-ss+4aa/Gaussia” for “TNFα-FL/Gaussia”
as §2

[10] = Liver Microsome Stability Assay, mouse; format: in vitro ADME; conditions: mouse liver microsomes 1.0 mg/mL, 1.0 uM compound, 37° C., 1 mM NADPH
Outline: as §3

[11] = Flp-In 293 T-REx cells, 24 hours with doxycycline; Table 3; read-out: 24 hr Dox Inducible TNFaFLGluc 293FRT/TO: Mean IC50
[12] = ratio of IC50s TNF/PD1; Table 3
[13] = Flp-In 293 T-REx cells, 24 hours with doxycycline; Table 3; read-out: 24 hr Dox Inducible PD1ssGluc 293FRT/TO: Mean IC50
[14] = U-266, U266B1 cells, 48 hours, Celltiter-Glo, read-out: 48 hr U266 Viability Celltiter-Glo: Mean EC50
[15] = Flp-In 293 T-REx cells, 24 hours with doxycycline; Table 3; read-out: 24 hr Dox Inducible IL2FLGluc 293FRT/TO: Mean IC50
[16] = ratio of IC50s IL2/PD1; Table 3
[17] = NCI-H929 cells, 48 hours, Celltiter-Glo, read-out: 48 hr H929 Viability Celltiter-Glo: Mean EC50
[18] = Flp-In 293 T-REx cells, 24 hours with doxycycline; Table 3; read-out: 24 hr Dox Inducible Her3(ss + 4)Gluc 293FRT/TO: Mean IC50
[19] = read-out: 24 hr Dox Inducible TNFaFLGluc 293FRT/TO: Mean IC50; Flp-In 293 T-REx cells, 24 hours with doxycycline; Table 3
[20] = read-out: 24 hr Dox Inducible PD1ssGluc 293FRT/TO: Mean IC50; Flp-In 293 T-REx cells, 24 hours with doxycycline; Table 3
[21] = U-266, 48 h, read-out: 48 hr U266 Viability Celltiter-Glo: Mean EC50 (nM)
[22] = read-out: 24 hr Dox Inducible IL2FLGluc 293FRT/TO: Mean IC50; Flp-In 293 T-REx cells, 24 hours with doxycycline; Table 3
[23] = NCI-H929, 48 h, read-out: 48 hr H929 Viability Celltiter-Glo: Mean EC50 (nM)
[24] = read-out: 24 hr Dox Inducible Her3(ss + 4)Gluc 293FRT/TO: Mean IC50; Flp-In 293 T-REx cells, 24 hours with doxycycline; Table 3

O=C(Nc1nc(/C=C/c2ncn(C3CC3)c2Cl)cs1)c1cc(Cl)cn1Cc1ccnc(F)c1 [Compound A12]
IC50 [1, 11]: 8.54 µM | 24 hr Dox Inducible TNFaFLGluc 293FRT/TO: TNF/PD1 [1, 12]: 807 | IC50 [2, 13]: 0.011 µM | Liver Microsome Stability (Multiple Species): Rat - % Remaining after 30 min w/ NADPH (%) [3]: 17% | EC50 [4, 14]: > 25000 nM | IC50 [5, 15]: 1.53 µM | 24 hr Dox Inducible IL2FLGluc 293FRT/TO: IL2/PD1 [5, 16]: 150 | Liver Microsome Stability (Multiple Species): Human - % Remaining after 30 min w/ NADPH (%) [6]: 8% | Liver Microsome Stability (Multiple Species): Monkey - % Remaining after 30 min w/ NADPH (%) [7]: 5% | EC50 [8, 17]: 10200 nM | IC50 [9, 18]: 1.15 µM | Liver Microsome Stability (Multiple Species): Mouse - % Remaining after 30 min w/ NADPH (%) [10]: 78%

O=C(Nc1nc(/C=C/c2ncoc2CO)cs1)c1cccn1Cc1ccnc(F)c1 [Compound B1, (E)-1-((2-fluoropyridin-4-yl)methyl)-N-(4-(2-(5-(hydroxymethyl)oxazol-4-yl)vinyl)thiazol-2-yl)-1H-pyrrole-2-carboxamide]
24 hr Dox Inducible TNFaFLGluc 293FRT/TO: TNF/PD1 [1, 12]: >2 | IC50 [1, 19]: > 25 µM | IC50 [2, 20]: 8.93 µM | Liver Microsome Stability (Multiple Species): Rat - % Remaining after 30 min w/ NADPH (%) [3]: 3% | EC50 [4, 21]: > 25000 nM | 24 hr Dox Inducible IL2FLGluc 293FRT/TO: IL2/PD1 [5, 16]: >2.8 | IC50 [5, 22]: > 25 µM | Liver Microsome Stability (Multiple Species): Human - % Remaining after 30 min w/ NADPH (%) [6]: 10% | Liver Microsome Stability (Multiple Species): Monkey - % Remaining after 30 min w/ NADPH (%) [7]: 2% | EC50 [8, 23]: > 25000 nM | IC50 [9, 24]: > 25 µM | Liver Microsome Stability (Multiple Species): Mouse - % Remaining after 30 min w/ NADPH (%) [10]: 29%

CC(C)n1cnc(F)c1/C=C/c1csc(NC(=O)c2cccn2Cc2ccnc(F)c2)n1 [Compound B2, (E)-N-(4-(2-(4-fluoro-1-isopropyl-1H-imidazol-5-yl)vinyl)thiazol-2-yl)-1-((2-fluoropyridin-4-yl)methyl)-1H-pyrrole-2-carboxamide]
24 hr Dox Inducible TNFaFLGluc 293FRT/TO: TNF/PD1 [1, 12]: >5 | IC50 [1, 19]: > 25 µM | IC50 [2, 20]: 4.48 µM | Liver Microsome Stability (Multiple Species): Rat - % Remaining after 30 min w/ NADPH (%) [3]: 8% | EC50 [4, 21]: > 25000 nM | 24 hr Dox Inducible IL2FLGluc 293FRT/TO: IL2/PD1 [5, 16]: 2 | IC50 [5, 22]: 6.64 µM | Liver Microsome Stability (Multiple Species): Human - % Remaining after 30 min w/ NADPH (%) [6]: <1% | Liver Microsome Stability (Multiple Species): Monkey - % Remaining after 30 min w/ NADPH (%) [7]: <1% | EC50 [8, 23]: > 25000 nM | IC50 [9, 24]: 6.4 µM | Liver Microsome Stability (Multiple Species): Mouse - % Remaining after 30 min w/ NADPH (%) [10]: 6%

O=C1CCn2cc(/C=C/c3csc(NC(=O)c4cccn4Cc4ccnc(F)c4)n3)nc2N1 [Compound B3, (E)-1-((2-fluoropyridin-4-yl)methyl)-N-(4-(2-(7-oxo-5,6,7,8-tetrahydroimidazo[1,2-a]pyrimidin-2-yl)vinyl)thiazol-2-yl)-1H-pyrrole-2-carboxamide]
IC50 [1, 11]: > 25 µM | 24 hr Dox Inducible TNFaFLGluc 293FRT/TO: TNF/PD1 [1, 12]: >38 | IC50 [2, 13]: 0.644 µM | Liver Microsome Stability (Multiple Species): Rat - % Remaining after 30 min w/ NADPH (%) [3]: 19% | EC50 [4, 14]: > 25000 nM | IC50 [5, 15]: > 25 µM | 24 hr Dox Inducible IL2FLGluc 293FRT/TO: IL2/PD1 [5, 16]: >39 | Liver Microsome Stability (Multiple Species): Human - % Remaining after 30 min w/ NADPH (%) [6]: <1% | Liver Microsome Stability (Multiple Species): Monkey - % Remaining after 30 min w/ NADPH (%) [7]: 1% | EC50 [8, 17]: > 25000 nM | IC50 [9, 18]: > 25 µM | Liver Microsome Stability (Multiple Species): Mouse - % Remaining after 30 min w/ NADPH (%) [10]: 53%

O=C(Nc1nc(/C=C/c2ccc(OC(F)F)cn2)cs1)c1cccn1Cc1ccnc(F)c1 [Compound B4, (E)-N-(4-(2-(5-(difluoromethoxy)pyridin-2-yl)vinyl)thiazol-2-yl)-1-((2-fluoropyridin-4-yl)methyl)-1H-pyrrole-2-carboxamide]
IC50 [1, 11]: 7.04 µM | 24 hr Dox Inducible TNFaFLGluc 293FRT/TO: TNF/PD1 [1, 12]: 544 | IC50 [2, 13]: 0.013 µM | Liver Microsome Stability (Multiple Species): Rat - % Remaining after 30 min w/ NADPH (%) [3]: 1% | EC50 [4, 14]: 19400 nM | IC50 [5, 15]: 1.65 µM | 24 hr Dox Inducible IL2FLGluc 293FRT/TO: IL2/PD1 [5, 16]: 130 | Liver Microsome Stability (Multiple Species): Human - % Remaining after 30 min w/ NADPH (%) [6]: <1% | Liver Microsome Stability (Multiple Species): Monkey - % Remaining after 30 min w/ NADPH (%) [7]: <1% | EC50 [8, 17]: 8750 nM | IC50 [9, 18]: 0.816 µM | Liver Microsome Stability (Multiple Species): Mouse - % Remaining after 30 min w/ NADPH (%) [10]: 7%

O=C(Nc1nc(/C=C/c2ccc(C(F)(F)F)cn2)cs1)c1cccn1Cc1ccnc(F)c1 [Compound B5, (E)-1-((2-fluoropyridin-4-yl)methyl)-N-(4-(2-(5-(trifluoromethyl)pyridin-2-yl)vinyl)thiazol-2-yl)-1H-pyrrole-2-carboxamide]
IC50 [1, 11]: 3.94 µM | 24 hr Dox Inducible TNFaFLGluc 293FRT/TO: TNF/PD1 [1, 12]: 230 | IC50 [2, 13]: 0.017 µM | Liver Microsome Stability (Multiple Species): Rat - % Remaining after 30 min w/ NADPH (%) [3]: 20% | EC50 [4, 14]: > 25000 nM | IC50 [5, 15]: 1.2 µM | 24 hr Dox Inducible IL2FLGluc 293FRT/TO: IL2/PD1 [5, 16]: 70 | Liver Microsome Stability (Multiple Species): Human - % Remaining after 30 min w/ NADPH (%) [6]: 4% | Liver Microsome Stability (Multiple Species): Monkey - % Remaining after 30 min w/ NADPH (%) [7]: <1% | EC50 [8, 17]: > 25000 nM | IC50 [9, 18]: 0.553 µM | Liver Microsome Stability (Multiple Species): Mouse - % Remaining after 30 min w/ NADPH (%) [10]: 20%

From patent US20250171434A1, “SEC61 INHIBITORS AND USE THEREOF” (KEZAR LIFE SCIENCES, INC., priority 2022, published 2025)
